Test results reported in patent publication US20130029970A1 (priority 2009, published 2013).
Read-outs that look alike come from different tables or passages of the source.

Assays:
human CB2 receptors = molecular target: T1, human CB2 receptors (Homo sapiens, UniProt P34972); experiment: cAMP assay in HEK-293 cells, hCB2 agonist; assay type: cell-based; details: inhibition of forskolin-stimulated cAMP, HEK-293 cells; for EC50: read-out: hCB2 EC50 (cAMP ag)
T1 construct: (cDNA clone) CNR0200000
Protocol: (§1) Functional assays which monitor G-protein coupled receptor or downstream cellular responses can be used to characterize potential CB1 receptor and/or CB2 receptor agonist or antagonist activities. Direct activation (or inhibition of activation) can be monitored using a GTPγS assay (membrane-based assay) or cAMP assay (whole cell-based assay).
cAMP assays were performed in HEK-293 cells stably expressing human CB1 or CB2 receptors. […] Cells suspensions were centrifuged and the cells were washed once with PBS, were centrifuged again, and the cells were re-suspended in HBSS (Hank's Balanced Salt Solution, Cellgro, Cat #21-022-CV) solution containing 10 mM HEPES and 0.1% fatty acid free BSA (Sigma, Cat #A0281). Cell suspensions were prepared at 1,500,000 cells per ml. Stock solutions of test substances (10 mM) in DMSO were diluted to 1 mM using 30% DMSO as diluent. Test substances of solutions (1 mM) were further diluted down to 3× of final assay concentrations in the above HBSS buffer containing 0.1% BSA in the presence of 90 uM forskolin (Sigma Cat#F6886). To perform the assay, 20 uL of cell suspension (1,500,000 cells/mL) were added to each well in 96 well plate and treated with 10 uL test substance solution diluted as described above. Cells and compounds were incubated at 37° C. for 30 minutes. Cells were lysed and cAMP concentration was measured using DiscoveRx −XS+ cAMP assay kit (DiscoveRx Corporation Ltd., Fremont, Calif., USA, Cat #90-0075-03), following the manufacturer's protocol. GraphPad Prism software was used to calculate EC50 values using sigmoidal dose response curve fitting. The maximal amount of cAMP produced by forskolin was defined as 100%.

human CB1 receptors = molecular target: T2, human CB1 receptors (Homo sapiens, UniProt P21554); experiment: cAMP assay in HEK-293 cells, hCB1 agonist; assay type: cell-based; details: inhibition of forskolin-stimulated cAMP, HEK-293 cells
T2 construct: (cDNA clone) CNR01L000
T2 sequence (P21554 whole entry): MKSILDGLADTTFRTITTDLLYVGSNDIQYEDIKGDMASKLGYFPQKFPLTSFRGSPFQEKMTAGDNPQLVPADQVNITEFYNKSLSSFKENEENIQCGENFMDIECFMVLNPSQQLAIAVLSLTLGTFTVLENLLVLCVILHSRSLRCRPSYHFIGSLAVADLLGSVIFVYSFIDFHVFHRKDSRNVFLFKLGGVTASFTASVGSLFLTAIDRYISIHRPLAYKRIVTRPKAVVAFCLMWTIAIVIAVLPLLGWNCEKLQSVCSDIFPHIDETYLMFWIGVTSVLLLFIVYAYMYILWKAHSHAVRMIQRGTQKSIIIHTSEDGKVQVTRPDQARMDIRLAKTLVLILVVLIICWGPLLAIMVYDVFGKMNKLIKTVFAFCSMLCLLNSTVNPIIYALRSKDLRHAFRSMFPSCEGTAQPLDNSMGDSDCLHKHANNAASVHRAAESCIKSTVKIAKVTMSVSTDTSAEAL
Source text: (§2) Stable, HEK-293-derived cell lines that recombinantly express hCBI or hCB2 were established. In brief, the clone hCB1 (CNR IL) or hCB2 (CNR2) was transfected into human embryonic kidney cells (HEK-293) using Lipofectamine 2000 (Gibco, Cat#11668-019) according to the manufacturer's protocol. Transfected clones were isolated by single colony purification and clones were screened for receptor expression using a whole cell, ^3H—CP 55,940 radioligand binding assay. HEK-293 stable cells were maintained in Dulbecco's modified Eagles medium (DMEM) containing 10% fetal bovine serum, 2 mM L-glutamine and 0.5 mg/mL G-418.
as §1
cAMP assays were performed in HEK-293 cells stably expressing human CB1 or CB2 receptors. For cannabinoid receptor functional assays measuring agonist effects on cellular cAMP levels, monolayers of cultured cells were harvested with enzyme-free PBS-based cell dissociation buffer (Gibco, Cat#13151-04). Cells suspensions were centrifuged and the cells were washed once with PBS, were centrifuged again, and the cells were re-suspended in HBSS (Hank's Balanced Salt Solution, Cellgro, Cat #21-022-CV) solution containing 10 mM HEPES and 0.1% fatty acid free BSA (Sigma, Cat #A0281). Cell suspensions were prepared at 1,500,000 cells per ml. Stock solutions of test substances (10 mM) in DMSO were diluted to 1 mM using 30% DMSO as diluent. Test substances of solutions (1 mM) were further diluted down to 3× of final assay concentrations in the above HBSS buffer containing 0.1% BSA in the presence of 90 uM forskolin (Sigma Cat#F6886). To perform the assay, 20 uL of cell suspension (1,500,000 cells/mL) were added to each well in 96 well plate and treated with 10 uL test substance solution diluted as described above. Cells and compounds were incubated at 37° C. for 30 minutes. Cells were lysed and cAMP concentration was measured using DiscoveRx −XS+ cAMP assay kit (DiscoveRx Corporation Ltd., Fremont, Calif., USA, Cat #90-0075-03), following the manufacturer's protocol. GraphPad Prism software was used to calculate EC50 values using sigmoidal dose response curve fitting. The maximal amount of cAMP produced by forskolin was defined as 100%. CB1 or CB2 agonists reduced forskolin-stimulated cAMP signaling. The EC50 value of an agonist compound was defined as the concentration at which 50% of the forskolin-stimulated cAMP synthesis was inhibited.

human CB2 (hCB2) = molecular target: T3, human CB2 (hCB2) (Homo sapiens, UniProt P34972); experiment: 35S GTPγS binding assay, hCB2 agonist; assay type: biochemical; details: GTPγS agonist, HEK-293 membranes; read-out: hCB2 EC50 (GTPyS ag)
T3 construct: (cDNA clone) CNR0200000
T3 sequence (P34972 whole entry): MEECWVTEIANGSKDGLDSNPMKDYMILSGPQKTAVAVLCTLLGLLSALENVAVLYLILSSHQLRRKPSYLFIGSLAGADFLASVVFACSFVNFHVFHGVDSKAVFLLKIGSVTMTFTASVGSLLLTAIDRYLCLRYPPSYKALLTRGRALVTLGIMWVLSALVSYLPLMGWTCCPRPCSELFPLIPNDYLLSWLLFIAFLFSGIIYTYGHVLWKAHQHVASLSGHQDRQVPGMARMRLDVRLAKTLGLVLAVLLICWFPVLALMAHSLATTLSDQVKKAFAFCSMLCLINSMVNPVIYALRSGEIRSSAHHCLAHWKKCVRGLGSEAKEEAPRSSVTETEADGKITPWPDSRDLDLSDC
Protocol: cDNA expression clones for human CB1 (hCB1, Genbank Accession No. AY225225) and human CB2 (hCB2, Genbank Accession No. AY242132) expressed in vector pcDNA3.1+ were purchased from UMR cDNA Resource Center, Rolla, Mo. (Clone ID CNR01L000 for hCB1; CNR0200000 for hCB2).
(§3) Membranes were isolated from transfected cells as follows. Monolayers of cultured cells were washed twice with phosphate-buffered saline (PBS). […] Homogenates were centrifuged 10 minutes at 1000×g at 4° C. The supernatant was collected and was centrifuged for 1 hour at 40,000×g. The supernatant was then decanted and the resulting pellet was re-suspended in 20 mM HEPES, pH 7.4, 5 mM MgCl2, 1 mM EDTA, 10% sucrose with complete cocktail protease inhibitors. Protein concentration of membrane suspensions were measured by Bradford Protein Assay using bovine serum albumin as the standard (BioRad catalog #500-0006). Protein concentrations of membrane suspensions were adjusted with the final buffer in the range of 5 to 10 mg/mL and were stored at −80° C. until further use.
as §1
^35S GTPγS binding assays were performed by incubating recombinant cell membranes prepared above (5 μg) in the presence of scintillation proximity assay beads (SPA beads, Catalog #RPNQ0252 GE Healthcare, Buckinghamshire, England) in GTPγS binding buffer [50 mM HEPES (pH 7.4), 100 mM NaCl, 5 mM MgCl2, 0.001% saponin (Sigma catalog #S4521)] supplemented with 20 uM GDP (Sigma catalog #G7127) in the presence or absence of test compound. The reaction was carried out in 96-well microplates with 0.1 nM [^35S]GTPγS (specific activity=1250 Ci/mmol; Perkin Elmer catalog #NEG030X250UC) in a final volume of 100 uL. After a 90 min room temperature incubation, the reaction was analyzed using a scintillation counter (Perkin Elmer Microbeta instrument). Binding data were analyzed using GraphPad Prism.

[1] = molecular target: T4, recombinant human cannabinoid receptor CB2 (Homo sapiens, UniProt P34972); experiment: Cannabinoid receptor radioligand binding assay, [3H]-CP 55,940 displacement, hCB2
T4 construct: (cDNA clone) CNR0200000
T4 sequence (P34972 whole entry): as above
Protocol: as §3
A rapid filtration technique using Millipore FB filter plates (Catalog #MADVNOB) and filtration apparatus (Millipore system Catalog MAVM0960R) with vacuum aspiration was used to harvest and rinse labeled membranes (8 times with 0.2 mL of chilled binding buffer). […] Binding data were analyzed using GraphPad Prism (GraphPad Software, Inc. San Diego, Calif.).

[2] = molecular target: T5, recombinant human cannabinoid receptor CB1 (Homo sapiens, UniProt P21554); experiment: Cannabinoid receptor radioligand binding assay, [3H]-CP 55,940 displacement, hCB1; details: displacement of 0.5 nM [3H]-CP 55,940; read-out: hCB1 IC50 (CP displ)
T5 construct: (cDNA clone) CNR01L000
T5 sequence (P21554 whole entry): as the sequence (P21554 whole entry) above
Source text: as §2
Membranes were isolated from transfected cells as follows. Monolayers of cultured cells were washed twice with phosphate-buffered saline (PBS). Cells were scraped into 20 mM HEPES, pH 7.4, 10 mM EDTA containing complete cocktail protease inhibitors (Roche, Catalog #11 697 498 001) and were homogenized by an electric-powered mechanical probe homogenizer (Omni GLH; probe G7-195S) for 40 seconds at 7000 rpm. Homogenates were centrifuged 10 minutes at 1000×g at 4° C. The supernatant was collected and was centrifuged for 1 hour at 40,000×g. The supernatant was then decanted and the resulting pellet was re-suspended in 20 mM HEPES, pH 7.4, 5 mM MgCl2, 1 mM EDTA, 10% sucrose with complete cocktail protease inhibitors. Protein concentration of membrane suspensions were measured by Bradford Protein Assay using bovine serum albumin as the standard (BioRad catalog #500-0006). Protein concentrations of membrane suspensions were adjusted with the final buffer in the range of 5 to 10 mg/mL and were stored at −80° C. until further use.
Radioligand binding assays were performed by incubating membranes (2-10 μg protein) prepared from HEK-293 cells expressing recombinant human cannabinoid receptors, CB1 or CB2, at room temperature with 0.5 nM cannabinoid receptor agonist, [^3H]-CP 55,940 (Perkin Elmer, catalog #NET1051) in 0.2 mL of binding buffer (50 mM Tris-HCl, pH 7.5, 5 mM MgCl2, 2.5 mM EDTA) and 0.1% fatty acid free bovine serum albumin (Sigma Cat. #A0821) for 90 minutes. A rapid filtration technique using Millipore FB filter plates (Catalog #MADVNOB) and filtration apparatus (Millipore system Catalog MAVM0960R) with vacuum aspiration was used to harvest and rinse labeled membranes (8 times with 0.2 mL of chilled binding buffer). The radioactivity bound to the filters was counted with 0.05 mL of liquid scintillant (UltraGold MV, PerkinElmer catalog #6013159) in a scintillation counter (Perkin Elmer Microbeta instrument). Nonspecific binding was determined in the presence of unlabeled 1 μM CP 55,940 (Sigma Aldrich, catalog #C1112). Binding data were analyzed using GraphPad Prism (GraphPad Software, Inc. San Diego, Calif.).

T1 sequence (P34972 whole entry): as the sequence (P34972 whole entry) above

SMILES	hCB2 EC50 (cAMP ag, nM) (human CB2 receptors)	hCB1 EC50 (cAMP ag, nM) (human CB1 receptors)	EC50 (human CB2 (hCB2))	EC50 (human CB2 receptors)	IC50 [1]	IC50 ([1]; displacement of 0.5 nM [3H]-CP 55,940, read-out: hCB2 IC50 (CP displ))	IC50 [2]
COc1ccc(C(=O)c2cc3cc(C)n(CCCNS(=O)(=O)C(F)(F)F)c3s2)cc1 [Compound 75, 1,1,1-Trifluoro-N-(3-(2-(4-methoxybenzoyl)-5-methyl-6H-thieno[2,3-b]pyrrol-6-yl)propyl)methanesulfonamide]	NS (NS means “Not Significant,” which means less than 30% agonist activity when compared to the positive control.)	NS (NS means “Not Significant,” which means less than 30% agonist activity when compared to the positive control.)					
CCOc1ccc(C(=O)c2cc3cc(C)n(CCCNS(C)(=O)=O)c3s2)cc1 [Compound 94, N-(3-(2-(4-Ethoxybenzoyl)-5-methyl-6H-thieno[2,3-b]pyrrol-6-yl)propyl)methanesulfonamide]		NS (NS means “Not Significant,” which means less than 30% agonist activity when compared to the positive control.)	< 100 nM	100 to 1000 nM	100 to 1000 nM		
COc1ccc(C(=O)c2cc3cc(C)n(CCN4CCOCC4=O)c3s2)cn1 [Compound 148, 4-(2-(2-(6-methoxynicotinoyl)-5-methyl-6H-thieno[2,3-b]pyrrol-6-yl)ethyl)morpholin-3-one]		NS (NS means “Not Significant,” which means less than 30% agonist activity when compared to the positive control.)				> 10000 nM	> 10000 nM
Cc1ccc(C(=O)c2cc3cc(C)n(CCCNS(C)(=O)=O)c3s2)c(F)c1 [Compound 97, N-(3-(2-(2-Fluoro-4-methylbenzoyl)-5-methyl-6H-thieno[2,3-b]pyrrol-6-yl)propyl)methanesulfonamide]		NS (NS means “Not Significant,” which means less than 30% agonist activity when compared to the positive control.)	< 100 nM	< 100 nM	100 to 1000 nM		
COc1ncc(C(=O)c2cc3cc(C)n(CCN4CCOCC4)c3s2)cn1 [Compound 118, (2-Methoxypyrimidin-5-yl)(5-methyl-6-(2-morpholinoethyl)-6H-thieno[2,3-b]pyrrol-2-yl)methanone]		NS (NS means “Not Significant,” which means less than 30% agonist activity when compared to the positive control.)	100 to 1000 nM	100 to 1000 nM			
CCOc1ccc(C(=O)c2cc3cc(C)n(CCCNS(C)(=O)=O)c3s2)c(F)c1 [Compound 95, N-(3-(2-(4-Ethoxy-2-fluorobenzoyl)-5-methyl-6H-thieno[2,3-b]pyrrol-6-yl)propyl)methanesulfonamide]		NS (NS means “Not Significant,” which means less than 30% agonist activity when compared to the positive control.)	100 to 1000 nM	< 100 nM	100 to 1000 nM		
COc1ccc(C(=O)c2cc3cc(C)n(CCCNC(C)=O)c3s2)cc1 [Compound 63, N-(3-(2-(4-Methoxybenzoyl)-5-methyl-6H-thieno[2,3-b]pyrrol-6-yl)propyl)acetamide]	NS (NS means “Not Significant,” which means less than 30% agonist activity when compared to the positive control.)	NS (NS means “Not Significant,” which means less than 30% agonist activity when compared to the positive control.)					
COc1ccc(C(=O)c2cc3cc(C)n(CCN4CCNC4=O)c3s2)cc1 [Compound 61]	NS (NS means “Not Significant,” which means less than 30% agonist activity when compared to the positive control.)	NS (NS means “Not Significant,” which means less than 30% agonist activity when compared to the positive control.)					
